Converted amounts (≈) assume the structure as drawn.
Legend:
Format in all cases: functional
[1] = tested on: Mycobacterium tuberculosis; assay: Antitubercular activity against Mycobacterium tuberculosis H37Rv by microplate alamar blue assay
[2] = tested on: Mycolicibacterium smegmatis; assay: Antimycobacterial activity against Mycobacterium smegmatis CMCC 93202 after 72 hrs by double dilution method; details: CMCC 93202, 72 h
[3] = tested on: Mycobacterium tuberculosis; assay: Antimycobacterial activity against Mycobacterium tuberculosis H37Rv ATCC 27294 by rapid direct susceptibility test
[4] = tested on: Mycobacterium tuberculosis; assay: Antimycobacterial activity against Mycobacterium tuberculosis H37Rv after 3 to 7 days by rapid direct susceptibility test

| SMILES | MIC [1] [µg/mL] | MIC [2] [µg/mL] | MIC [3] [µg/mL] | MIC [4] [µg/mL] |
| --- | --- | --- | --- | --- |
| COc1cc(Cc2cnc(/N=C3\C(=O)N(CN4CCN(c5cc6c(cc5F)c(=O)c(C(=O)O)cn6C5CC5)CC4)c4ccc(C)cc43)nc2N)cc(OC)c1OC | 0.78 to 3.13 (≈ 1 to 4.03 µM) |  |  |  |
| CCn1cc(C(=O)O)c(=O)c2cc(F)c(N3CCN(CN4C(=O)/C(=N\c5ncc(Cc6cc(OC)c(OC)c(OC)c6)c(N)n5)c5cc(C)ccc54)C(C)C3)c(F)c21 (stereo unspecified) | 0.78 to 3.13 (≈ 0.979 to 3.93 µM) |  |  |  |
| COc1cc(Cc2cnc(/N=C3\C(=O)N(CN4CCN(c5c(F)cc6c(=O)c(C(=O)O)cn(C7CC7)c6c5OC)CC4C)c4ccc(C)cc43)nc2N)cc(OC)c1OC (stereo unspecified) | 0.78 to 3.13 (≈ 0.95 to 3.81 µM) |  |  |  |
| CCn1cc(C(=O)O)c(=O)c2cc(F)c(N3CCN(CN4C(=O)/C(=N\c5ncc(Cc6cc(OC)c(OC)c(OC)c6)c(N)n5)c5cc(F)ccc54)CC3)cc21 | 0.78 to 3.13 (≈ 1.01 to 4.07 µM) |  |  |  |
| CCn1cc(C(=O)O)c(=O)c2cc(F)c(N3CCN(CN4C(=O)/C(=N\c5ncc(Cc6cc(OC)c(OC)c(OC)c6)c(N)n5)c5cc(F)ccc54)C(C)C3)c(F)c21 (stereo unspecified) | 0.78 to 3.13 (≈ 0.974 to 3.91 µM) |  |  |  |
| COc1cc(Cc2cnc(/N=C3\C(=O)N(CN4CCN(c5cc6c(cc5F)c(=O)c(C(=O)O)cn6C5CC5)CC4)c4ccc(Cl)cc43)nc2N)cc(OC)c1OC | 0.78 to 3.13 (≈ 0.978 to 3.93 µM) |  |  |  |
| CCn1cc(C(=O)O)c(=O)c2cc(F)c(N3CCN(CN4C(=O)/C(=N\c5ncc(Cc6cc(OC)c(OC)c(OC)c6)c(N)n5)c5cc(Cl)ccc54)C(C)C3)c(F)c21 (stereo unspecified) | 0.78 to 3.13 (≈ 0.954 to 3.83 µM) |  |  |  |
| CCO/N=C1\C(=O)N(CCN2CCC[C@H]3CN(c4c(F)cc5c(=O)c(C(=O)O)cn(C6CC6)c5c4OC)C[C@H]32)c2ccc(F)cc21 |  | 0.39 to 16 (≈ 0.614 to 25.2 µM) | 0.39 to 16 (≈ 0.614 to 25.2 µM) |  |
| COc1c(N2C[C@@H]3CCCN(CN4C(=O)/C(=N\NC(N)=S)c5cc(F)ccc54)[C@@H]3C2)c(F)cc2c(=O)c(C(=O)O)cn(C3CC3)c12 |  | 0.39 to 16 (≈ 0.598 to 24.6 µM) | 0.39 to 16 (≈ 0.598 to 24.6 µM) |  |
| CO/N=C1\C(=O)N(CN2CCC[C@H]3CN(c4c(F)cc5c(=O)c(C(=O)O)cn(C6CC6)c5c4OC)C[C@H]32)c2ccc(F)cc21 |  | 0.39 to 16 (≈ 0.642 to 26.3 µM) | 0.39 to 16 (≈ 0.642 to 26.3 µM) |  |
| COc1c(N2C[C@@H]3CCCN(CCN4C(=O)/C(=N\NC(N)=O)c5ccccc54)[C@@H]3C2)c(F)cc2c(=O)c(C(=O)O)cn(C3CC3)c12 |  | 0.39 to 16 (≈ 0.617 to 25.3 µM) | 0.39 to 16 (≈ 0.617 to 25.3 µM) |  |
| COc1cc(Cc2cnc(/N=C3\C(=O)N(CN4CCN(c5c(F)cc6c(=O)c(C(=O)O)cn(C7CC7)c6c5OC)CC4C)c4ccc(Cl)cc43)nc2N)cc(OC)c1OC (stereo unspecified) | 0.78 to 3.13 (≈ 0.927 to 3.72 µM) |  |  |  |
| NC(=S)N/N=C1/C(=O)N(CCCN2CCN(c3cc4c(cc3F)c(=O)c(C(=O)O)cn4C3CC3)CC2)c2ccccc21 |  |  |  | 0.1 to 64 (≈ 0.169 to 108 µM) |
| CO/N=C1\C(=O)N(CCN2CCC[C@H]3CN(c4c(F)cc5c(=O)c(C(=O)O)cn(C6CC6)c5c4OC)C[C@H]32)c2cc(F)ccc21 |  | 0.39 to 16 (≈ 0.627 to 25.7 µM) | 0.39 to 16 (≈ 0.627 to 25.7 µM) |  |
| CCO/N=C1/C(=O)N(CCn2cc(CN3CCC[C@H]4CN(c5c(F)cc6c(=O)c(C(=O)O)cn(C7CC7)c6c5OC)C[C@H]43)nn2)c2ccccc21 |  |  |  | 0.1 to 0.78 (≈ 0.143 to 1.12 µM) |
| CCO/N=C1\C(=O)N(CCN2CCC[C@H]3CN(c4c(F)cc5c(=O)c(C(=O)O)cn(C6CC6)c5c4OC)C[C@H]32)c2ccccc21 |  | 0.39 to 16 (≈ 0.631 to 25.9 µM) | 0.39 to 16 (≈ 0.631 to 25.9 µM) |  |
| COc1c(N2C[C@@H]3CCCN(Cc4cn(CCN5C(=O)/C(=N/NC(N)=O)c6ccccc65)nn4)[C@@H]3C2)c(F)cc2c(=O)c(C(=O)O)cn(C3CC3)c12 |  |  |  | 0.1 to 0.78 (≈ 0.14 to 1.09 µM) |
| COc1c(N2C[C@@H]3CCCN(CN4C(=O)C(=O)c5cc(F)ccc54)[C@@H]3C2)c(F)cc2c(=O)c(C(=O)O)cn(C3CC3)c12 |  | 0.39 to 16 (≈ 0.674 to 27.7 µM) | 0.39 to 16 (≈ 0.674 to 27.7 µM) |  |
| COc1c(N2C[C@@H]3CCCN(CCN4C(=O)/C(=N\NC(N)=S)c5cc(F)ccc54)[C@@H]3C2)c(F)cc2c(=O)c(C(=O)O)cn(C3CC3)c12 |  | 0.39 to 16 (≈ 0.586 to 24 µM) | 0.39 to 16 (≈ 0.586 to 24 µM) |  |
| COc1c(N2C[C@@H]3CCCN(Cc4cn(CCN5C(=O)C(=O)c6ccccc65)nn4)[C@@H]3C2)c(F)cc2c(=O)c(C(=O)O)cn(C3CC3)c12 |  |  |  | 0.1 to 0.78 (≈ 0.153 to 1.19 µM) |
| O=C(O)c1cn(C2CC2)c2cc(N3CCN(CCCN4C(=O)/C(=N/O)c5ccccc54)CC3)c(F)cc2c1=O |  |  |  | 0.1 to 64 (≈ 0.187 to 120 µM) |
| CCO/N=C1\C(=O)N(CN2CCC[C@H]3CN(c4c(F)cc5c(=O)c(C(=O)O)cn(C6CC6)c5c4OC)C[C@H]32)c2ccc(F)cc21 |  | 0.39 to 16 (≈ 0.627 to 25.7 µM) | 0.39 to 16 (≈ 0.627 to 25.7 µM) |  |
| COc1c(N2C[C@@H]3CCCN(CN4C(=O)/C(=N\NC(N)=O)c5cc(F)ccc54)[C@@H]3C2)c(F)cc2c(=O)c(C(=O)O)cn(C3CC3)c12 |  | 0.39 to 16 (≈ 0.614 to 25.2 µM) | 0.39 to 16 (≈ 0.614 to 25.2 µM) |  |
| COc1c(N2C[C@@H]3CCCN(CCN4C(=O)/C(=N\NC(N)=O)c5cc(F)ccc54)[C@@H]3C2)c(F)cc2c(=O)c(C(=O)O)cn(C3CC3)c12 |  | 0.39 to 16 (≈ 0.6 to 24.6 µM) | 0.39 to 16 (≈ 0.6 to 24.6 µM) |  |
| COc1c(N2C[C@@H]3CCCN(CCN4C(=O)C(=O)c5cc(F)ccc54)[C@@H]3C2)c(F)cc2c(=O)c(C(=O)O)cn(C3CC3)c12 |  | 0.39 to 16 (≈ 0.658 to 27 µM) | 0.39 to 16 (≈ 0.658 to 27 µM) |  |
| COc1c(N2C[C@@H]3CCCN(CN4C(=O)/C(=N\O)c5ccccc54)[C@@H]3C2)c(F)cc2c(=O)c(C(=O)O)cn(C3CC3)c12 |  | 0.39 to 16 (≈ 0.678 to 27.8 µM) | 0.39 to 16 (≈ 0.678 to 27.8 µM) |  |
| COc1c(N2C[C@@H]3CCCN(CN4C(=O)C(=O)c5ccccc54)[C@@H]3C2)c(F)cc2c(=O)c(C(=O)O)cn(C3CC3)c12 |  | 0.39 to 16 (≈ 0.696 to 28.5 µM) | 0.39 to 16 (≈ 0.696 to 28.5 µM) |  |

Reference: ChEMBL document CHEMBL4382234, “Fluoroquinolone-isatin hybrids and their biological activities” (Eur J Med Chem, 2019)
